By EC50 is commonly meant the concentration needed to bring the measured effect to its halfway point.

This is an account of results in ChEMBL document CHEMBL3608205, “Eight new cycloartane triterpenoids from Beesia calthifolia with hepatoprotective effects against D-galactosamine induced L02 cell damage” (Bioorg Med Chem Lett, 2015).

Structures are written as SMILES.

One test concerns L02. Briefly: Hepatoprotective activity in human L02 cells assessed as reduction in D-galactosamine-induced cell damage at 0.1 to 1000 uM pre-incubated at 37 degC for 24 hrs before D-galactosamine challenge for 24 hrs by SRB method. The class given is functional, cell-based. Conditions: Homo sapiens, L02; read-out: EC50. (In general: In SRB staining, fixed cells bind dye roughly in proportion to their protein.)
Regarding `CC(=O)O[C@H]1[C@H](OC(C)=O)[C@@]2(C)[C@@H]3CC[C@H]4C(C)(C)[C@@H](O)CC[C@@]45C[C@@]35C[C@@H](O)[C@]2(C)[C@H]1[C@]1(C)CC[C@H](C(C)(C)O)O1` (mixture of isomers), the EC50 came to 10.7 µM.

`CC(C)(O)[C@H]1CC[C@@](C)([C@H]2[C@@H](O)[C@H](O)[C@@]3(C)[C@@H]4CC[C@H]5C(C)(C)[C@@H](O[C@@H]6OC[C@@H](O)[C@H](O)[C@H]6O)CC[C@@]56C[C@@]46C[C@H](O)[C@]23CO)O1` (relative stereo): the concentration for a half-maximal effect (EC50) was 48.9 µM.

`CC(C)(O)[C@H]1CC[C@@](C)([C@H]2[C@@H](O)[C@H](O)[C@@]3(C)[C@@H]4CC[C@H]5C(C)(C)[C@@H](O[C@@H]6OC[C@@H](O)[C@H](O)[C@H]6O)CC[C@@]56C[C@@]46C[C@H](O)[C@]23C)O1`: the half-maximal effective concentration (EC50) was determined as 70.8 µM.

Consider `CC(C)(O)[C@H]1CC[C@@](C)([C@H]2[C@@H](O)[C@H](O)[C@@]3(C)[C@@H]4CC[C@H]5C(C)(C)[C@@H](O[C@@H]6OC[C@@H](O)[C@H](O)[C@H]6O)CC[C@@]56C[C@@]46C[C@@H](O)[C@]23C)O1` (relative stereo), for which the EC50 is 61.6 µM.

In the case of `CC(C)(O)[C@H]1CC[C@@](C)([C@H]2C(=O)[C@H](O)[C@@]3(C)[C@@H]4CC[C@H]5C(C)(C)[C@@H](O[C@@H]6OC[C@@H](O)[C@H](O)[C@H]6O)CC[C@@]56C[C@@]46C[C@H](O)[C@]23C)O1` (relative stereo), the EC50 amounted to 78.6 µM.

The same test, now with this note: l02.
Regarding `CC(C)(O)[C@H]1CC[C@@](C)([C@H]2C(=O)[C@H](O)[C@@]3(C)[C@@H]4CC[C@H]5C(C)(C)[C@@H](O)CC[C@@]56C[C@@]46C[C@H](O)[C@]23C)O1` (relative stereo), the EC50 result is recorded as “Not Active”.

Turning to `CC(=O)O[C@H]1[C@H](O)[C@H]([C@]2(C)CC[C@H](C(C)(C)O)O2)[C@@]2(C)CC[C@@]34C[C@@]35CC[C@H](O[C@@H]3OC[C@@H](O)[C@H](O)[C@H]3O)C(C)(C)[C@@H]5CC[C@H]4[C@]12C`, the concentration for a half-maximal effect (EC50) entry is listed as “Not Active”.

For the compound `CC(=O)OC[C@]12CC[C@@]34C[C@@]35CC[C@H](O[C@@H]3OC[C@@H](O)[C@H](O)[C@H]3O)C(C)(C)[C@@H]5CC[C@H]4[C@]1(C)[C@@H](O)[C@H](OC(C)=O)[C@@H]2[C@]1(C)CC[C@H](C(C)(C)O)O1`, the EC50 result was “Not Active”.
